Results reported in PMC11876601 (Molecular Systems Biology, 2025).
pEC50: −log10 of the molar value. Like-named read-outs stand apart in the source and are kept apart here.

Test system: p-sites in DNA-damaged AsPC-1 cells
Experiment: decryptM dose-resolved phosphoproteomics of ATRi in GEM-pre-treated cells
Type: cell-based, human
Conditions: for pEC50 / EC50: Homo sapiens, ASPC1
Protocol: Cell culture medium was replaced 24 h after seeding. […] For time point 0, AsPC-1 cells were treated with a vehicle and lysed immediately. The final DMSO concentration in all experiments was 0.2%.
Briefly, cells were washed twice with PBS and lysed in SDS lysis buffer (2% SDS in 40 mM Tris-HCl, pH 7.6), followed by sonication for 10 min (30 s on/30 s off) using a Bioruptor (Diagenode). For DNA hydrolysis, samples were boiled at 95 °C for 10 min and incubated with 2% trifluoroacetic acid (TFA) for 1 min, before the reaction was quenched using 4% N-methylmorpholine. Lysate was cleared by centrifugation at 11,000 × g for 5 min and protein concentration was determined using the Pierce BCA Protein Assay Kit (Thermo Scientific).
Using 70% ethanol, samples were then precipitated on beads, followed by washing thrice with 80% ethanol and once with 100% acetonitrile. Subsequently, proteins were reduced and alkylated using 10 mM TCEP, 50 mM chloroacetamide, and 2 mM CaCl2 in 100 mM EPPS/NaOH, pH 8.5 for 1 h at 37 °C, followed by tryptic digestion at 37 °C for 16 h. Peptides were acidified with 1% TFA and desalted on Chromabond HLB plates (30 µm particle size, 10 mg capacity, Machery-Nagel), using 0.1% TFA for equilibration and sample loading, and 0.1% TFA in 70% acetonitrile for peptide elution. Recovered peptides were freeze-dried by vacuum-centrifugation and stored at −20 °C.
Depending on the experiment, samples were either labeled with TMT-11plex (decryptM), TMT-10plex (non-decryptM, quadruplicates), or TMTpro reagent (time-series; all Thermo Scientific). Therefore, dried peptides were reconstituted in 15 µl 100 mM EPPS, pH 8.5 and each treatment condition was labeled with one channel of the respective TMT reagent (5 µl of 25 µg/µl reagent, Appendix Tables S4–S6). The reaction was incubated for 1 h at 23 °C and subsequently quenched with 0.4% hydroxylamine. Then, samples were pooled, acidified with 1% formic acid, and freeze-dried by vacuum-centrifugation. Labeled peptide pools were desalted on C18 Sep-Pak cartridges (37–55 µm particle size, 50 mg capacity, Waters), using 0.1% formic acid as equilibration solvent, and 0.1% formic acid in 60% acetonitrile was used as elution solvent. Eluted peptides were freeze-dried and stored at −20 °C until further use.
Basic reversed-phase (bRP) fractionation of peptides was performed on a Vanquish HPLC (Thermo Scientific). In short, dried peptides were reconstituted in 200 µl 25 mM ammonium bicarbonate, pH 8.0 and directly injected onto a Waters BEH130 XBridge C18 column (3.5 µm, 4.6 × 250 mm). […] Using an automated fraction collector, 96 fractions were collected between min 7 and 55 after injection. Fractions were acidified with 1% formic acid and pooled to 48 fractions, before they were freeze-dried and stored at −20 °C.
Immobilized metal ion affinity chromatography (IMAC) enrichment of phosphorylated peptides was performed on the Bravo automated liquid handling platform using AssayMAP Fe(III)-NTA cartridges (Agilent). In brief, the 48 dried peptide fractions were reconstituted in 0.1% TFA in 80% acetonitrile and further pooled to 12 fractions (200 µl final volume per well). The phosphopeptide enrichment protocol embedded in the Agilent AssayMAP Bravo Protein Sample Prep Workbench v2.0 software was run. Thereby, the cartridges were first primed with 150 μl 0.1% TFA in acetonitrile at 300 μl/min, and equilibrated with 150 μl 0.1% TFA in 80% acetonitrile at 10 μl/min. Then, pooled fractions were loaded at 5 µl/min and further washed three times with 150 μl 0.1% TFA in 80% acetonitrile at 50 μl/min. Enriched peptides were eluted with 60 μl 1% ammonium hydroxide at 5 μl/min.

C[C@@H]1COCCN1c1cc(C2([S@](C)(=N)=O)CC2)nc(-c2cc[nH]c3nccc2-3)n1 [Ceralasertib]
Log2 PTM response (GEM+ATRi vs. GEM) (AASDHPPT-pS258): -0.9 | Log2 PTM response (GEM+ATRi vs. GEM) (BRCA1-pS1239): -1.1 | Log2 PTM response (GEM+ATRi vs. GEM) (BRD8-pS621): -1.7 | Log2 PTM response (GEM+ATRi vs. GEM) (CDKN2AIP-pS198): -1.6 | Log2 PTM response (GEM+ATRi vs. GEM) (CHEK1-pS317): -2 | Log2 PTM response (GEM+ATRi vs. GEM) (CHEK1-pS468): -3.8 | Log2 PTM response (GEM+ATRi vs. GEM) (DHX9-pS321): -1.6 | Log2 PTM response (GEM+ATRi vs. GEM) (EXO1-pS714): -0.7 | Log2 PTM response (GEM+ATRi vs. GEM) (FANCD2-pS319): -1.3 | Log2 PTM response (GEM+ATRi vs. GEM) (HDGF-pS103): -1.4 | Log2 PTM response (GEM+ATRi vs. GEM) (HMGA1-pS9): -2 | Log2 PTM response (GEM+ATRi vs. GEM) (HMGA1-pS36;S44): -1.5 | Log2 PTM response (GEM+ATRi vs. GEM) (HMGA1-pS44): -1.7 | Log2 PTM response (GEM+ATRi vs. GEM) (HSPA4-pS552): -1.1 | Log2 PTM response (GEM+ATRi vs. GEM) (HTATSF1-pS481): -0.6 | pEC50 (approximate, from density plot Fig. 4C (peer review file), read-out: EC50 of the majority of pSQ/pTQ sites): ~7.00 | EC50 (approximate, from density plot Fig. 4C (peer review file), read-out: pEC50 of the majority of pSQ/pTQ sites (converted)): ~100 nM | pEC50 (p-site dose-response in GEM-pre-treated cells, read-out: EC50, RALY S176): 6.82 | EC50 (p-site dose-response in GEM-pre-treated cells, read-out: pEC50, RALY S176 (converted)): 151 nM | pEC50 (read-out: median EC50 across all drug-regulated pSQ/pTQ-sites): 6.81 | Log2 PTM response (GEM+ATRi vs. GEM) (LRRC42-pS385): -2.5 | Log2 PTM response (GEM+ATRi vs. GEM) (NBN-pS397): -1.2 | Log2 PTM response (GEM+ATRi vs. GEM) (NBN-pS615): -0.5 | Log2 PTM response (GEM+ATRi vs. GEM) (NSUN5-pS432): -3 | Log2 PTM response (GEM+ATRi vs. GEM) (PELP1-pS1033): -1.3 | Log2 PTM response (GEM+ATRi vs. GEM) (PHF14-pS294): -1.2 | Log2 PTM response (GEM+ATRi vs. GEM) (PPM1G-pS201): -1.9 | Log2 PTM response (GEM+ATRi vs. GEM) (PPP6R3-pS825): -1.6 | Log2 PTM response (GEM+ATRi vs. GEM) (PSMD4-pS266): -1.3 | Log2 PTM response (GEM+ATRi vs. GEM) (RAD18-pS368): -1.2 | Log2 PTM response (GEM+ATRi vs. GEM) (RIF1-pS1873): -0.6 | Log2 PTM response (GEM+ATRi vs. GEM) (SNRPA-pS115): -1.4 | Log2 PTM response (GEM+ATRi vs. GEM) (TCEA1-pS100;S97): -2.1 | Log2 PTM response (GEM+ATRi vs. GEM) (TCEB3-pS251): -1.6 | Log2 PTM response (GEM+ATRi vs. GEM) (THAP4-pS186): -1.4 | Log2 PTM response (GEM+ATRi vs. GEM) (TOPBP1-pS1504): -1.5 | Log2 PTM response (GEM+ATRi vs. GEM) (TSEN34-pS136): -1.1 | Log2 PTM response (GEM+ATRi vs. GEM) (UHRF1-pS393): -1.4 | Log2 PTM response (GEM+ATRi vs. GEM) (UIMC1-pS171): -2.1 | Log2 PTM response (GEM+ATRi vs. GEM) (ZC3H14-pS135): -1.3 | ATRi Regulation (Curve), RALY S176 (classified by CurveCurator): down | PTM response (norm. to 1 µM GEM) (source data 4B (p-site not named), 1 µM GEM + ATRi 1 nM): 1.20 | PTM response (norm. to 1 µM GEM) (source data 4B (p-site not named), 1 µM GEM + ATRi 3 nM): 0.93 | PTM response (norm. to 1 µM GEM) (source data 4B (p-site not named), 1 µM GEM + ATRi 30 nM): 0.96 | PTM response (norm. to 1 µM GEM) (source data 4B (p-site not named), 1 µM GEM + ATRi 100 nM): 0.97 | PTM response (norm. to 1 µM GEM) (source data 4B (p-site not named), 1 µM GEM + ATRi 300 nM): 0.85 | PTM response (norm. to 1 µM GEM) (source data 4B (p-site not named), 1 µM GEM + ATRi 1000 nM): 0.52 | PTM response (norm. to 1 µM GEM) (source data 4B (p-site not named), 1 µM GEM + ATRi 3000 nM): 0.35 | PTM response (norm. to 1 µM GEM) (source data 4B (p-site not named), 1 µM GEM + ATRi 10000 nM): 0.27 | PTM response (norm. to 1 µM GEM) (source data 5B (p-site not named), 1 µM GEM + ATRi 3 nM): 0.78 | PTM response (norm. to 1 µM GEM) (source data 5B (p-site not named), 1 µM GEM + ATRi 10 nM): 0.81 | PTM response (norm. to 1 µM GEM) (source data 5B (p-site not named), 1 µM GEM + ATRi 30 nM): 0.67 | PTM response (norm. to 1 µM GEM) (source data 5B (p-site not named), 1 µM GEM + ATRi 100 nM): 0.51 | PTM response (norm. to 1 µM GEM) (source data 5B (p-site not named), 1 µM GEM + ATRi 300 nM): 0.34 | PTM response (norm. to 1 µM GEM) (source data 5B (p-site not named), 1 µM GEM + ATRi 1000 nM): 0.16 | PTM response (norm. to 1 µM GEM) (source data 5B (p-site not named), 1 µM GEM + ATRi 3000 nM): 0.11 | PTM response (norm. to 1 µM GEM) (source data 5B (p-site not named), 1 µM GEM + ATRi 10000 nM): 0.09
